{
  "source": "patent US20040248979A1",
  "about": "“Method of treating lower urinary tract disorders” (DYNOGEN PHARMACEUTICALS, INC., priority 2003, published 2004)",
  "origin": "cited, not measured here",
  "key": {"[1]": {"tested_on": "α2δ subunits of calcium channels"}, "[2]": {"details": "preclinical and clinical studies"}},
  "data": [
    {"smiles": "COc1cccc([C@]2(O)CCCC[C@H]2CN(C)C)c1", "note": "(racemic) [Tramadol, (+/−)cis-2-[(dimethylamino)methyl]-1-(3-methoxyphenyl) cyclohexanol]", "values": [
      {"measurement": "affinity for opioid receptors", "setting": "opioid receptors", "result": "low affinity"}
    ]},
    {"smiles": "NCC1(CC(=O)O)CCCCC1", "note": "[Gabapentin, 1-(aminomethyl) cyclohexaneacetic acid]", "values": [
      {"measurement": "binding affinity for calcium channel subunits", "setting": "[1]", "result": "high binding affinity"}
    ]},
    {"smiles": "CC(C)C[C@H](CN)CC(=O)O", "note": "[Pregabalin, (3S)-3-(aminomethyl)-5-methylhexanoic acid]", "values": [
      {"measurement": "binding affinity for calcium channel subunits", "setting": "[1]", "result": "even higher binding affinity for certain α2δ subunits of calcium channels than gabapentin"}
    ]},
    {"smiles": "CC(OC(=O)NCC1(CC(=O)O)CCCCC1)OC(=O)C(C)C", "note": "(centres unmarked) [XP13512]", "values": [
      {"measurement": "blood levels of gabapentin across oral doses", "setting": "[2]; broad range of oral doses", "result": "dose proportional blood levels of gabapentin"},
      {"measurement": "absorption from the large intestine", "setting": "[2]", "result": "absorbed efficiently from the large intestine"}
    ]}
  ]
}
